Assay results published in patent US20070099828A1, “BIOMARKERS FOR THE EFFICACY OF CALCITONIN AND PARATHYROID HORMONE TREATMENT” (priority 2003, published 2007).
“And” between values parts separate entries of the source, which are not always exact repeats. Equal entries are not always repeated.

Columns and labels:
[1] = system: liver, kidney, pituitary, muscle, bone, duodenum, spleen and trachea; set-up: species or system cynomolgus monkeys (Macaca fascicularis); settings: cynomolgus monkey, in vivo
Experimental: Tissue sampling. Animals were killed by deep anaesthesia induced by intravenous injection of Pentothal®, followed by exsanguinations. All relevant tissues were sampled for histopathology and gene expression profiling. The following tissue samples were processed for analysis: liver, kidney, pituitary, muscle, bone, duodenum, spleen and trachea. Samples for histopathology were fixed in phosphate-buffered 10% formalin. Bone demineralization was performed with 10% formic acid. Tissue samples were embedded in Paraplast® and sectioned at 4 microns, for staining with haematoxylin and eosin. Samples for gene expression profiling were quickly frozen in liquid nitrogen immediately after excision, stored on dry ice and subsequently in a deep-freezer at approximately −80° C. until further use. All selected tissues for gene expression profiling were examined histopathologically.

[2] = cynomolgus monkey, in vivo
Source text: Animals. […] Solvent was used as vehicle for the control group.
The animals used in this analysis were cynomolgus monkeys (Macaca fascicularis), supplied by Centre de Recherches Primatologiques, Port Louis, Mauritius. Two animals were used per group and sex. At the beginning of the treatment period, the animals were at least 24 months old, with a body weight of approximately 3 kg. Animals were kept under standard conditions for animal welfare. Animals were examined daily for mortality, food consumption and clinical observations. Body weight was recorded once per week.

Haematology = assay type: in vivo, cynomolgus monkeys (Macaca fascicularis)
Source text: (§1) Blood sampling. […] Blood samples were taken from a peripheral vein.

Blood pressure = assay type: in vivo, cynomolgus monkeys (Macaca fascicularis); settings: for Blood Pressure Difference: Week 2 vs Week-1; for Blood Pressure Week-1: before dosing
[3] = Hormone determinations in serum; assay type: in vivo, cynomolgus monkeys (Macaca fascicularis); settings: males
Source text: as §1

[4] = urine, females, day −8 (pre-dose)

Food Consumption Avg., Both animals [2]: 72.9 | L (Haematology; females, d 7): 4.61 G/L and 6.21 G/L | MCH (Haematology; females, d 7): 18.6 pg and 19.4 pg | MCV (Haematology; females, d 7): 64 fL and 68 fL | PCV (Haematology; females, d 7): 0.4 l/l and 0.44 l/l | PLAT (Haematology; females, d 7): 594 G/L and 356 G/L | RBC (Haematology; females, d 7): 6.2 T/l and 6.6 T/l | WBC (Haematology; females, d 7): 9.5 G/l and 17 G/l | monocyte count (Haematology; females, d 7): 0.63 G/l and 0.82 G/l | B (Haematology; females, d 13): 0.03 G/L and 0.05 G/L | L (Haematology; females, d 13): 5.18 G/L and 6.58 G/L | MCH (Haematology; females, d 13): 19.5 pg | MCV (Haematology; females, d 13): 64 fL and 65 fL | PCV (Haematology; females, d 13): 0.33 l/l and 0.37 l/l | PLAT (Haematology; females, d 13): 451 G/L and 229 G/L | RBC (Haematology; females, d 13): 5.2 T/l and 5.7 T/l | WBC (Haematology; females, d 13): 12 G/l and 13.3 G/l | monocyte count (Haematology; females, d 13): 0.69 G/l and 0.39 G/l | B (Haematology; females, d −8 (before dosing)): 0.02 G/L and 0.01 G/L | E (Haematology; females, d −8 (before dosing)): 0.03 G/L | L (Haematology; females, d −8 (before dosing)): 3.26 G/L and 4.79 G/L | MCH (Haematology; females, d −8 (before dosing)): 19.1 pg and 19.8 pg | MCV (Haematology; females, d −8 (before dosing)): 61 fL and 65 fL | PCV (Haematology; females, d −8 (before dosing)): 0.4 l/l and 0.45 l/l | PLAT (Haematology; females, d −8 (before dosing)): 549 G/L and 304 G/L | RBC (Haematology; females, d −8 (before dosing)): 6.5 T/l and 7 T/l | WBC (Haematology; females, d −8 (before dosing)): 7 G/l and 8.3 G/l | monocyte count (Haematology; females, d −8 (before dosing)): 0.25 G/l and 0.3 G/l | B (Haematology; males, d 7): 0.04 G/l | E (Haematology; males, d 7): 0.10 G/l and 0.09 G/l | HB (Haematology; males, d 7): 11.7 g/dL and 11.5 g/dL | L (Haematology; males, d 7): 6.79 G/l and 5.57 G/l | M (Haematology; males, d 7): 0.73 G/l and 0.45 G/l | MCH (Haematology; males, d 7): 19.9 pg and 19.2 pg | MCHC (Haematology; males, d 7): 30.3 g/dL and 31.3 g/dL | MCV (Haematology; males, d 7): 66 fL and 62 fL | PCV (Haematology; males, d 7): 0.39 l/l and 0.37 l/l | PLAT (Haematology; males, d 7): 396 G/l and 330 G/l | RBC (Haematology; males, d 7): 5.9 T/l and 6.0 T/l | WBC (Haematology; males, d 7): 11.8 G/l and 9.5 G/l | B (Haematology; males, d 13): 0.03 G/l | HB (Haematology; males, d 13): 11.2 g/dL and 10.3 g/dL | L (Haematology; males, d 13): 5.38 G/l and 4.92 G/l | M (Haematology; males, d 13): 0.57 G/l and 0.76 G/l | MCH (Haematology; males, d 13): 20.2 pg and 19.2 pg | MCHC (Haematology; males, d 13): 29.0 g/dL and 28.7 g/dL | MCV (Haematology; males, d 13): 70 fL and 67 fL | PCV (Haematology; males, d 13): 0.39 l/l and 0.36 l/l | PLAT (Haematology; males, d 13): 302 G/l and 389 G/l | RBC (Haematology; males, d 13): 5.6 T/l and 5.4 T/l | WBC (Haematology; males, d 13): 8.0 G/l and 8.8 G/l | HB (Haematology; males, d −6 (before dosing)): 12.6 g/dL and 13.6 g/dL | L (Haematology; males, d −6 (before dosing)): 4.00 G/l and 6.55 G/l | MCH (Haematology; males, d −6 (before dosing)): 20.2 pg and 19.7 pg | MCHC (Haematology; males, d −6 (before dosing)): 31.4 g/dL and 32.0 g/dL | MCV (Haematology; males, d −6 (before dosing)): 64 fL and 62 fL | PCV (Haematology; males, d −6 (before dosing)): 0.40 l/l and 0.43 l/l | PLAT (Haematology; males, d −6 (before dosing)): 351 G/l and 247 G/l | RBC (Haematology; males, d −6 (before dosing)): 6.3 T/l and 6.9 T/l | WBC (Haematology; males, d −6 (before dosing)): 7.7 G/l and 11.5 G/l | CREAT (urine) (Urinary analysis; males, day 13): 4620 µmol/L and 4400 µmol/L | Ca2+ (urine) (Urinary analysis; males, day 13): 18.25 mmol/L and 23.40 mmol/L | Cl− (urine) (Urinary analysis; males, day 13): 55 mmol/L and 68 mmol/L | I.PHOS (urine) (Urinary analysis; males, day 13): 2.50 mmol/L and 3.00 mmol/L | K+ (urine) (Urinary analysis; males, day 13): 78 mmol/L and 76 mmol/L | Mg2+ (urine) (Urinary analysis; males, day 13): 7.05 mmol/L and 9.80 mmol/L | Na+ (urine) (Urinary analysis; males, day 13): 14 mmol/L and 15 mmol/L | VOLUME (urine) (Urinary analysis; males, day 13): 68 mL and 54 mL | I.PHOS (urine) (Urinary analysis; males, day −6 (before dosing)): 4.35 mmol/L and 5.33 mmol/L | LDH (urine) (Urinary analysis; males, day −6 (before dosing)): 9.0 IU/L and 13.0 IU/L | NAG (urine) (Urinary analysis; males, day −6 (before dosing)): 2.7 IU/l and 4.2 IU/l | VOLUME (urine) (Urinary analysis; males, day −6 (before dosing)): 62 mL and 37 mL | CREAT (Urinary analysis; urine, females, day 13): 4800 µmol/L and 4200 µmol/L | Ca2+ (Urinary analysis; urine, females, day 13): 17.55 mmol/L and 12.70 mmol/L | Cl− (Urinary analysis; urine, females, day 13): 63 mmol/L and 65 mmol/L | I.PHOS (Urinary analysis; urine, females, day 13): 5.1 mmol/L and 5.8 mmol/L | K+ (Urinary analysis; urine, females, day 13): 53 mmol/L and 57 mmol/L | Mg2+ (Urinary analysis; urine, females, day 13): 5.40 mmol/L and 4.85 mmol/L | NAG (Urinary analysis; urine, females, day 13): 2.8 IU/l and 2.7 IU/l | Na+ (Urinary analysis; urine, females, day 13): 40 mmol/L and 32 mmol/L | VOLUME (Urinary analysis; urine, females, day 13 of dosing): 67 mL and 49 mL | CREAT (Urinary analysis; urine, females, day −7 (pre-dose)): 6920 µmol/L and 13380 µmol/L | CREAT (Urinary analysis; [4]): 10780 µmol/L and 11260 µmol/L | Ca2+ (Urinary analysis; [4]): 3.00 mmol/L and 3.50 mmol/L | K+ (Urinary analysis; [4]): 104 mmol/L and 172 mmol/L | Mg2+ (Urinary analysis; [4]): 3.35 mmol/L and 3.80 mmol/L | Na+ (Urinary analysis; [4]): 98 mmol/L and 156 mmol/L | ACTH ([3]; day 7): 87 pg/mL and 78 pg/mL | ALDOST ([3]; day 7): 1058 pg/mL and 987 pg/mL | C-PEPTI ([3]; day 7): 1.70 ng/mL and 1.20 ng/mL | CORTISOL ([3]; day 7): 979 nmol/L and 1523 nmol/L | CT ([3]; day 7): 4.0 pg/mL and 2.5 pg/mL | GASTRIN ([3]; day 7): 83 pg/mL and 128 pg/mL | GLUCAG ([3]; day 7): 247 pg/mL and 218 pg/mL | INSULIN ([3]; day 7): 14.0 mU/l and 10.0 mU/l | IPH ([3]; day 7): 75 pg/mL and 62 pg/mL | S.MED ([3]; day 7): 268 ng/mL and 307 ng/mL | T3 ([3]; day 7): 2.35 nmol/L and 1.65 nmol/L | T4 ([3]; day 7): 64 nmol/L and 79 nmol/L | VD25-H ([3]; day 7): 50 nmol/L and 44 nmol/L | ACTH ([3]; day 13): 87 pg/mL and 73 pg/mL | ALDOST ([3]; day 13): 819 pg/mL and 977 pg/mL | C-PEPTI ([3]; day 13): 1.80 ng/mL and 2.30 ng/mL | CORTISOL ([3]; day 13): 1611 nmol/L and 1709 nmol/L | G.H. ([3]; day 13): 16.2 ng/mL and 15.7 ng/mL | GASTRIN ([3]; day 13): 88 pg/mL and 136 pg/mL | GLUCAG ([3]; day 13): 428 pg/mL and 503 pg/mL | INSULIN ([3]; day 13): 17.0 mU/l and 22.0 mU/l | IPH ([3]; day 13): 78 pg/mL and 71 pg/mL | PROLACT ([3]; day 13): 4.6 ng/mL and 6.6 ng/mL | S.MED ([3]; day 13): 332 ng/mL and 384 ng/mL | T3 ([3]; day 13): 2.51 nmol/L and 1.90 nmol/L | T4 ([3]; day 13): 47 nmol/L and 65 nmol/L | VD25-H ([3]; day 13): 49 nmol/L and 45 nmol/L | CORTISOL ([3]; day −6 (pre-dose)): 2316 nmol/L and 1578 nmol/L | CT ([3]; day −6 (pre-dose)): 6.7 pg/mL and 5.1 pg/mL | G.H. ([3]; day −6 (pre-dose)): 11.5 ng/mL and 14.6 ng/mL | GLUCAG ([3]; day −6 (pre-dose)): 905 pg/mL and 869 pg/mL | T3 ([3]; day −6 (pre-dose)): 1.06 nmol/L and 1.48 nmol/L | T4 ([3]; day −6 (pre-dose)): 53 nmol/L and 62 nmol/L | TESTO ([3]; day −6 (pre-dose)): 8.5 nmol/L and 9.5 nmol/L | VD25-H ([3]; day −6 (pre-dose)): 63 nmol/L and 62 nmol/L | ACTH ([3]; day −6 relative to start of dosing (pre-dose)): 98 pg/mL and 115 pg/mL
SMILES: CC(C)C[C@H](NC(=O)[C@H](CCCCN)NC(=O)CNC(=O)[C@H](CC(C)C)NC(=O)[C@@H](NC(=O)[C@@H]1CSSC[C@H](N)C(=O)N[C@@H](CO)C(=O)N[C@@H](CC(N)=O)C(=O)N[C@@H](CC(C)C)C(=O)N[C@@H](CO)C(=O)N[C@@H]([C@@H](C)O)C(=O)N1)C(C)C)C(=O)N[C@@H](CO)C(=O)N[C@@H](CCC(N)=O)C(=O)N[C@@H](CCC(=O)O)C(=O)N[C@@H](CC(C)C)C(=O)N[C@@H](Cc1c[nH]cn1)C(=O)N[C@@H](CCCCN)C(=O)N[C@@H](CC(C)C)C(=O)N[C@@H](CCC(N)=O)C(=O)N[C@H](C(=O)N[C@@H](Cc1ccc(O)cc1)C(=O)N1CCC[C@H]1C(=O)N[C@@H](CCCNC(=N)N)C(=O)N[C@H](C(=O)N[C@@H](CC(N)=O)C(=O)N[C@H](C(=O)NCC(=O)N[C@@H](CO)C(=O)NCC(=O)N[C@H](C(=O)N1CCC[C@H]1C(N)=O)[C@@H](C)O)[C@@H](C)O)[C@@H](C)O)[C@@H](C)O [Salmon Calcitonin]
inflammatory and regenerative changes in the kidneys [1]: slightly higher incidence | Blood Pressure Week 2 (Blood pressure; Female, first line per animal): 82 mmHg and 44 mmHg | Blood Pressure Difference (Blood pressure; Female, first line per animal): −16 mmHg and −48 mmHg | Blood Pressure Week-1 (Blood pressure; Female, first line per animal): 98 mmHg and 92 mmHg | Blood Pressure Week 2 (Blood pressure; Female, second line per animal): 25 mmHg and 30 mmHg | Blood Pressure Difference (Blood pressure; Female, second line per animal): −25 mmHg and 4 mmHg | Blood Pressure Week-1 (Blood pressure; Female, second line per animal): 50 mmHg and 26 mmHg | Blood Pressure Week 2 (Blood pressure; Male, first line per animal): 99 mmHg and 79 mmHg | Blood Pressure Difference (Blood pressure; Male, first line per animal): −36 mmHg and −23 mmHg | Blood Pressure Week-1 (Blood pressure; Male, first line per animal): 135 mmHg and 102 mmHg | Blood Pressure Week 2 (Blood pressure; Male, second line per animal): 40 mmHg and 35 mmHg | Blood Pressure Difference (Blood pressure; Male, second line per animal): −21 mmHg | Blood Pressure Week-1 (Blood pressure; Male, second line per animal): 61 mmHg and 56 mmHg
